# Data: patent US20050255537A1, “Method for monitoring treatment with a parathyroid hormone” (priority 1999, published 2005)
# Experiments:
# [1] = system: postmenopausal women and osteoporotic men; experiment: Example 6 spine BMD treatment-response model and BCM response-indicator neural network (women and men); type: in vivo, human
# Excerpt: Data from studies in Examples 1 and 5 above were further analyzed to develop more detailed models for the use of bone markers in monitoring and predicting effects of PTH on clinically significant correlates of efficacy in the treatment of osteoporosis, such as bone mineral density (BMD). Population pharmacodynamic (PD) models were developed for total lumbar spine BMD, and the following biochemical markers of bone formation and resportion: PICP, BSAP, NTX, and DPD. The final treatment-response model for total lumbar spine was used to calculate BMD values at 12 months of treatment for each patient, based on the individual's parameter estimates (empirical Bayesian estimate). These predicted BMD measurements were merged with the observed BCM values, at baseline, 1 month, and 3 months of treatment, for patients who completed at least 12 months of LY333334 treatment. A neural network was developed to characterize the relationship between BCM values at 1 and 3 months and response to treatment, as measured by change in total lumbar spine BMD.
# The spine BMD placebo-response model characterized change in total lumbar spine BMD over time in osteoporotic patients taking calcium and vitamin D supplements. The BMD treatment-response model was used to characterize change in total lumbar spine BMD during the course of treatment and to identify patient factors influencing response to therapy. This model was also used to provide individual estimates of change in BMD at 12 months. The BCM treatment-response models characterized changes in PICP, BSAP, NTX, and DPD, during the course of treatment.
# The individual estimates of change in spine BMD from the final treatment-response model were combined with observed BCM values to develop the response-indicator neural network. The neural network was used to evaluate change in the biochemical markers as early indicators of change in total lumbar spine BMD.
# Change in total lumbar spine BMD at 12 months of treatment was calculated from the post-hoc BMD estimates for each patient from the final spine BMD treatment-response model. These BMD estimates were combined with observed BCM values at baseline, 1, and 3 months for all patients completing at least 12 months of LY333334 therapy.
# Neural networks were used to evaluate the biochemical markers as potential indicators of bone mineral density response to LY333334 treatment. The relationship between change in biochemical marker values and change in spine BMD is complex and the appropriate model structure is unknown. The neural network approach was chosen to avoid the a priori assumption of a model form. A proprietary artificial neural network program developed at Eli Lilly and Company (described in Wikel J, Dow E, Heathman M. 1996. Interpretive Neural Networks for QSAR. Network Science [available on-line]) was used to evaluate the BCM values as predictors of change in spine BMD. Other back-propagation networks which are known in the art and commercially available also would provide similar results. The BCM values, as well as significant patient factors from the final spine BMD treatment-response model, were used as inputs to the neural network. The network was trained to predict change in total lumbar spine BMD.
# human subjects = experiment: Applicant's studies of daily dose of hPTH(1-34) in human subjects (bone markers, side effects); type: in vivo
# Description: Therefore, treatment of osteoporosis in men or women with hPTH(1-34) preferably should use a daily dose greater than about 6 μg, more preferably at least about 15 μg. […] Therefore, any daily dose of hPTH(1-34) in the range of greater than about 6 μg to at least about 40 μg would be effective for reduction of the risk of both vertebral and nonvertebral fractures, according to the present method of using this form of parathyroid hormone.
# [2] = system: postmenopausal osteoporotic women; conditions: GHAC efficacy trial, disclosed in PCT/US99/18961; cited from earlier work
# [3] = Female Patients, BSAP at 3 Months 10-14.99 pM
# [4] = Female Patients, BSAP at 3 Months 15-19.99 pM
# [5] = Female Patients, BSAP at 3 Months <10 pM
# [6] = Female Patients, BSAP at 3 Months ≧20 pM
# [7] = Females, change in PICP at 1 month 50-99 pM, baseline PICP <100 pM
# [8] = Females, change in PICP at 1 month 50-99 pM, baseline PICP ≧100 pM
# [9] = Females, change in PICP at 1 month 100-149 pM, baseline PICP <100 pM
# [10] = Females, change in PICP at 1 month 100-149 pM, baseline PICP ≧100 pM
# [11] = Females, change in PICP at 1 month <50 pM, baseline PICP <100 pM
# [12] = Females, change in PICP at 1 month <50 pM, baseline PICP ≧100 pM
# [13] = Females, change in PICP at 1 month ≧150 pM, baseline PICP ≧100 pM
# [14] = Male Patients, BSAP at 3 Months 10-14.99 pM
# [15] = Male Patients, BSAP at 3 Months 15-19.99 pM
# [16] = Male Patients, BSAP at 3 Months <10 pM
# [17] = Male Patients, BSAP at 3 Months ≧20 pM
# [18] = Males, change in PICP at 1 month 50-99 pM, baseline PICP <100 pM
# [19] = Males, change in PICP at 1 month 50-99 pM, baseline PICP ≧100 pM
# [20] = Males, change in PICP at 1 month 100-149 pM, baseline PICP <100 pM
# [21] = Males, change in PICP at 1 month 100-149 pM, baseline PICP ≧100 pM
# [22] = Males, change in PICP at 1 month <50 pM, baseline PICP <100 pM
# [23] = Males, change in PICP at 1 month <50 pM, baseline PICP ≧100 pM
# [24] = Males, change in PICP at 1 month ≧150 pM, baseline PICP <100 pM
# [25] = Males, change in PICP at 1 month ≧150 pM, baseline PICP ≧100 pM
# [26] = all patients with baseline PICP >100 pM and increase in PICP >100 pM, 12 months
# [27] = male patients with baseline PICP >100 pM and increase in PICP >100 pM
# [28] = postmenopausal women with baseline PICP >100 pM and increase in PICP >100 pM
smiles,measurement,setting,value
CC[C@H](C)[C@H](NC(=O)[C@H](CCC(=O)O)NC(=O)[C@H](CO)NC(=O)[C@@H](NC(=O)[C@@H](N)CO)C(C)C)C(=O)N[C@@H](CCC(N)=O)C(=O)N[C@@H](CC(C)C)C(=O)N[C@@H](CCSC)C(=O)N[C@@H](Cc1cnc[nH]1)C(=O)N[C@@H](CC(N)=O)C(=O)N[C@@H](CC(C)C)C(=O)NCC(=O)N[C@@H](CCCCN)C(=O)N[C@@H](Cc1cnc[nH]1)C(=O)N[C@@H](CC(C)C)C(=O)N[C@@H](CC(N)=O)C(=O)N[C@@H](CO)C(=O)N[C@@H](CCSC)C(=O)N[C@@H](CCC(=O)O)C(=O)N[C@@H](CCCN=C(N)N)C(=O)N[C@H](C(=O)N[C@@H](CCC(=O)O)C(=O)N[C@@H](Cc1c[nH]c2ccccc12)C(=O)N[C@@H](CC(C)C)C(=O)N[C@@H](CCCN=C(N)N)C(=O)N[C@@H](CCCCN)C(=O)N[C@@H](CCCCN)C(=O)N[C@@H](CC(C)C)C(=O)N[C@@H](CCC(N)=O)C(=O)N[C@@H](CC(=O)O)C(=O)N[C@H](C(=O)N[C@@H](Cc1cnc[nH]1)C(=O)N[C@@H](CC(N)=O)C(=O)N[C@@H](Cc1ccccc1)C(=O)O)C(C)C)C(C)C [LY333334],"% Change in Spine BMD at 12 Months, 5th-95th Percentiles",[1]; [3],1.5-18.9%
same,"% Change in Spine BMD at 12 Months, Mean",[1]; [3],9.4%
same,"% Change in Spine BMD at 12 Months, 5th-95th Percentiles",[1]; [4],3.4-24.7%
same,"% Change in Spine BMD at 12 Months, Mean",[1]; [4],12.2%
same,"% Change in Spine BMD at 12 Months, 5th-95th Percentiles",[1]; [5],0.5-15.3%
same,"% Change in Spine BMD at 12 Months, Mean",[1]; [5],7.2%
same,"% Change in Spine BMD at 12 Months, 5th-95th Percentiles",[1]; [6],4.6-20.9%
same,"% Change in Spine BMD at 12 Months, Mean",[1]; [6],12.9%
same,"% Change in Spine BMD at 12 Months, 5th-95th Percentiles",[1]; [7],2.2-19.0%
same,"% Change in Spine BMD at 12 Months, Mean",[1]; [7],9.5%
same,"% Change in Spine BMD at 12 Months, 5th-95th Percentiles",[1]; [8],3.6-18.8%
same,"% Change in Spine BMD at 12 Months, Mean",[1]; [8],10.4%
same,"% Change in Spine BMD at 12 Months, 5th-95th Percentiles",[1]; [9],2.9-16.1%
same,"% Change in Spine BMD at 12 Months, Mean",[1]; [9],10.4%
same,"% Change in Spine BMD at 12 Months, 5th-95th Percentiles",[1]; [10],6.9-19.7%
same,"% Change in Spine BMD at 12 Months, Mean",[1]; [10],12.6%
same,"% Change in Spine BMD at 12 Months, 5th-95th Percentiles",[1]; [11],−0.7-12.4%
same,"% Change in Spine BMD at 12 Months, Mean",[1]; [11],5.7%
same,"% Change in Spine BMD at 12 Months, 5th-95th Percentiles",[1]; [12],2.9-17.3%
same,"% Change in Spine BMD at 12 Months, Mean",[1]; [12],9.0%
same,"% Change in Spine BMD at 12 Months, Mean","[1]; Females, change in PICP at 1 month ≧150 pM, baseline PICP <100 pM",13.7%
same,"% Change in Spine BMD at 12 Months, 5th-95th Percentiles",[1]; [13],11.9-31.1%
same,"% Change in Spine BMD at 12 Months, Mean",[1]; [13],18.5%
same,"% Change in Spine BMD at 12 Months, 5th-95th Percentiles",[1]; [14],1.9-14.9%
same,"% Change in Spine BMD at 12 Months, Mean",[1]; [14],7.9%
same,"% Change in Spine BMD at 12 Months, 5th-95th Percentiles",[1]; [15],3.0-15.0%
same,"% Change in Spine BMD at 12 Months, Mean",[1]; [15],8.3%
same,"% Change in Spine BMD at 12 Months, 5th-95th Percentiles",[1]; [16],1.6-13.0%
same,"% Change in Spine BMD at 12 Months, Mean",[1]; [16],7.1%
same,"% Change in Spine BMD at 12 Months, 5th-95th Percentiles",[1]; [17],1.6-19.6%
same,"% Change in Spine BMD at 12 Months, Mean",[1]; [17],10.0%
same,"% Change in Spine BMD at 12 Months, 5th-95th Percentiles",[1]; [18],4.6-18.1%
same,"% Change in Spine BMD at 12 Months, Mean",[1]; [18],9.4%
same,"% Change in Spine BMD at 12 Months, 5th-95th Percentiles",[1]; [19],3.6-15.8%
same,"% Change in Spine BMD at 12 Months, Mean",[1]; [19],8.7%
same,"% Change in Spine BMD at 12 Months, 5th-95th Percentiles",[1]; [20],7.2-14.0%
same,"% Change in Spine BMD at 12 Months, Mean",[1]; [20],11.1%
same,"% Change in Spine BMD at 12 Months, 5th-95th Percentiles",[1]; [21],4.6-18.6%
same,"% Change in Spine BMD at 12 Months, Mean",[1]; [21],11.3%
same,"% Change in Spine BMD at 12 Months, 5th-95th Percentiles",[1]; [22],1.2-11.7%
same,"% Change in Spine BMD at 12 Months, Mean",[1]; [22],4.8%
same,"% Change in Spine BMD at 12 Months, 5th-95th Percentiles",[1]; [23],1.5-11.7%
same,"% Change in Spine BMD at 12 Months, Mean",[1]; [23],6.9%
same,"% Change in Spine BMD at 12 Months, 5th-95th Percentiles",[1]; [24],2.7-20.8%
same,"% Change in Spine BMD at 12 Months, Mean",[1]; [24],10.7%
same,"% Change in Spine BMD at 12 Months, 5th-95th Percentiles",[1]; [25],6.0-18.0%
same,"% Change in Spine BMD at 12 Months, Mean",[1]; [25],10.2%
same,mean increase in total lumbar spine BMD,[1]; [26],13.6%
same,minimum increase in total lumbar spine BMD,[1]; [26],≥ 4.3%
same,mean increase in total lumbar spine BMD,[1]; [27],10.8%
same,minimum increase in total lumbar spine BMD,[1]; [27],≥ 4.3%
same,mean increase in total lumbar spine BMD,[1]; men who did not meet the PICP criteria,7.4%
same,mean increase in total lumbar spine BMD,"[1]; patients who did not meet the PICP criteria, 12 months",8.2%
same,mean increase in total lumbar spine BMD,[1]; [28],16.0%
same,minimum increase in total lumbar spine BMD,[1]; [28],≥ 5.9%
same,mean increase in total lumbar spine BMD,[1]; women who did not meet the PICP criteria,8.8%
same,effect on bone formation as indicated by bone markers,human subjects; 6 μg,no significant effects
same,undesirable side effects,human subjects; daily dose of about 20 μg vs about 40 μg,fewer undesirable side effects
same,"lowest tested dose effective for stimulation of bone formation, as indicated by bone markers","human subjects; human subjects, daily dose",about 15 μg
same,incidence of new vertebral and non-vertebral fractures compared to placebo,[2],reduced the incidence of new vertebral fractures and non-vertebral fractures
